Values after ≈ are worked out from the molar mass of the structure shown.
Experiments:
Cholinesterase = Cholinesterase (Homo sapiens, UniProt P06276); experiment: Inhibition of butyrylcholinesterase (unknown origin)
Acetylcholinesterase [1] = target: T1, Acetylcholinesterase (Homo sapiens, UniProt P22303); experiment: Inhibition of AChE (unknown origin) by Ellman's method
Acetylcholinesterase [2] = target: T1, Acetylcholinesterase; experiment: Inhibition of human AchE using acetylthiocholine iodide as substrate incubated for 20 mins by Ellman's assay; details: read-out: EC50 (the source's name)
[3] = Antioxidant activity assessed as DPPH radical scavenging activity; assay type: functional
SGC-7901 = experiment: Cytotoxicity against human SGC-7901 cells assessed as reduction in cell viability measured after 72 hrs by MTT assay; assay type: functional, cell-based; details: SGC-7901, 72 h
[4] = Antioxidant activity assessed as DPPH radical scavenging activity incubated for 20 mins by spectrophotometric method; assay type: functional
RAW264.7 [5] = experiment: Antiinflammatory activity against LPS-induced mouse RAW264.7 cells assessed as reduction in IL-6 mRNA expression at 10 uM by RT-PCR analysis; assay type: functional; parameters: scale not given: the % may be the effect or the level left
RAW264.7 [6] = experiment: Anti-inflammatory activity against mouse RAW264.7 cells assessed as inhibition of LPS-induced NO production at 100 ng/ml pretreated with compound for 2 hrs followed by LPS stimulation and measured after 24 hrs by Griess reagent based analysis; assay type: functional; parameters: scale not given: the % may be the effect or the level left; details: time 26 hrs
[7] = Antioxidant activity assessed as DPPH radical scavenging activity measured after 30 mins by UV-visible spectrophotometric analysis; assay type: functional
[8] = Antioxidant activity assessed as ABTS radical scavenging activity incubated for 30 mins by UV-visible spectrphotometric analysis; assay type: functional
RAW264.7 [9] = experiment: Anti-inflammatory activity against mouse RAW264.7 cells assessed as inhibition of LPS-induced nitric oxide production at 50 uM preincubated for 2 hrs with compound followed by LPS-stimulation and measured after 24 hrs by Griess reagent based analysis; assay type: functional, cell-based
Acetylcholinesterase [10] = target: T1, Acetylcholinesterase; experiment: Inhibition of Acetylcholinesterase (unknown origin) using acetylthiocholine iodide as substrate incubated for 20 mins by Ellaman's method
[11] = target: Tyrosine-protein kinase JAK3 (Homo sapiens, UniProt P52333); experiment: Inhibition of JAK3 (unknown origin) preincubated for 1 hr followed by substrate addition and measured after 1 hr in the presence of ATP by FRET-based Z'-Lyte assay
[12] = Metal chelating activity assessed as iron chelation by CAS assay
MCF7 = experiment: Cytotoxicity against human MCF7 cells assessed as reduction in cell viability measured after 24 hrs by MTT assay; assay type: functional, cell-based; details: MCF7, 24 h
[13] = Immunosuppressive activity in Kunming mouse splenocyte assessed as reduction in ConA-stimulated T-lymphocytes proliferation at 20 uM incubated for 72 hrs by CCK-8 assay relative to control; assay type: functional, T-cell; parameters: scale not given: the % may be the effect or the level left
Helicoverpa armigera = experiment: Antifeedant activity against Helicoverpa armigera at 100 uM relative to control; assay type: functional
RAW264.7 [14] = experiment: Anti-inflammatory activity against mouse RAW264.7 cells assessed as inhibition of LPS-induced NO production at 10 uM preincubated with compound for 2 hrs followed by LPS stimulation and measured after 24 hrs by Griess reagent based analysis; assay type: functional, cell-based
[15] = target: Glycogen synthase kinase-3 beta (Homo sapiens, UniProt P49841); experiment: Inhibition of N-terminal His6-tagged human recombinant GSK3beta expressed in baculovirus-infected Sf21 cells incubated for 60 mins in presence of ATP by ADP-glo analysis
[16] = target: Casein kinase I isoform delta (Homo sapiens, UniProt P48730); experiment: Inhibition of N-terminal GST-tagged human recombinant CK1delta (1 to 294 residues) expressed in Escherichia coli incubated for 60 mins in presence of ATP by Kinase-glo luminescent assay
[17] = target: Cyclin-dependent kinase 5/CDK5 activator 1 (Homo sapiens, UniProt Q00535); experiment: Inhibition of N-terminal full length human recombinant CDK5/p25 expressed in baculovirus-infected Sf21 cells incubated for 60 mins in presence of ATP by kinase-glo luminescent assay
[18] = target: Beta-1 adrenergic receptor (Homo sapiens) (UniProt P08588); experiment: Agonist activity at ARbeta1 (unknown origin) expressed in CHO-K1 cells co-expressing G alpha 15 assessed as inhibition of isoproterenol induced calcium response upto 100 uM incubated for 10 mins by calcium mobilization assay relative to control; assay type: functional, cell-based; parameters: Activity: scale not given: the % may be the effect or the level left
RAW264.7 [19] = experiment: Antiinflammatory activity in LPS-induced mouse RAW264.7 cells assessed as reduction in COX-2 level at 100 uM pretreated for 1 hr followed by LPS stimulation and measured after 48 hrs by ELISA relative to control; assay type: functional; parameters: scale not given: the % may be the effect or the level left; details: time 49 hrs

Casein kinase I isoform delta, sequence (P48730 whole entry, the tested form may be a part, canonical isoform): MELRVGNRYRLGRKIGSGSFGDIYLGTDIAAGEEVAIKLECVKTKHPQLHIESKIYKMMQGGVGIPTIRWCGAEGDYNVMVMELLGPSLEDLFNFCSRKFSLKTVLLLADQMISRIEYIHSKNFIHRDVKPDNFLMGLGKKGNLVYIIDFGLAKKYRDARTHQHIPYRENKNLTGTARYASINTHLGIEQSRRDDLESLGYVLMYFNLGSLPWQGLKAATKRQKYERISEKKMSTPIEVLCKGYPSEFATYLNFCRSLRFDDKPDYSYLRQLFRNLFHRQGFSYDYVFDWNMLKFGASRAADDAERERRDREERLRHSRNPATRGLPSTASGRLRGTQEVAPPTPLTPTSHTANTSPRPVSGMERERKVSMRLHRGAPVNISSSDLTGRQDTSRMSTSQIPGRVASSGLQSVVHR
Cyclin-dependent kinase 5/CDK5 activator 1, sequence (Q00535 whole entry): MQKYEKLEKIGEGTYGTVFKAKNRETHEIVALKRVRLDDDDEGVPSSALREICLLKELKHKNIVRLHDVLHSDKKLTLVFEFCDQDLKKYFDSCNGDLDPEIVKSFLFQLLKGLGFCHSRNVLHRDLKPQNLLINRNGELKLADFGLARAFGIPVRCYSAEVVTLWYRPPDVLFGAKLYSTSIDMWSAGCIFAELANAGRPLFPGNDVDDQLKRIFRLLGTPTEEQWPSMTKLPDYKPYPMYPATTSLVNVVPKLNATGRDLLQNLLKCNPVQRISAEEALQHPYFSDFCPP
Cyclin-dependent kinase 5/CDK5 activator 1, sequence (Q15078 whole entry, further chain): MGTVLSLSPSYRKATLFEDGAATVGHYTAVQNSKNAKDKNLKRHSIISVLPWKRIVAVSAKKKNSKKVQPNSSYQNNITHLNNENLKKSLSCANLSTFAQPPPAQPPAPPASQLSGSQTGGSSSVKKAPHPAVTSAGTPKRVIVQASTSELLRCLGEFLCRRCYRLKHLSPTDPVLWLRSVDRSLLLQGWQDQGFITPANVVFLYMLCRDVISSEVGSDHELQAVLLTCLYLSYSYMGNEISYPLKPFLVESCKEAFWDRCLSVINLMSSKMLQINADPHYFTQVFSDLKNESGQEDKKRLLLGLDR
T1 sequence (P22303 whole entry): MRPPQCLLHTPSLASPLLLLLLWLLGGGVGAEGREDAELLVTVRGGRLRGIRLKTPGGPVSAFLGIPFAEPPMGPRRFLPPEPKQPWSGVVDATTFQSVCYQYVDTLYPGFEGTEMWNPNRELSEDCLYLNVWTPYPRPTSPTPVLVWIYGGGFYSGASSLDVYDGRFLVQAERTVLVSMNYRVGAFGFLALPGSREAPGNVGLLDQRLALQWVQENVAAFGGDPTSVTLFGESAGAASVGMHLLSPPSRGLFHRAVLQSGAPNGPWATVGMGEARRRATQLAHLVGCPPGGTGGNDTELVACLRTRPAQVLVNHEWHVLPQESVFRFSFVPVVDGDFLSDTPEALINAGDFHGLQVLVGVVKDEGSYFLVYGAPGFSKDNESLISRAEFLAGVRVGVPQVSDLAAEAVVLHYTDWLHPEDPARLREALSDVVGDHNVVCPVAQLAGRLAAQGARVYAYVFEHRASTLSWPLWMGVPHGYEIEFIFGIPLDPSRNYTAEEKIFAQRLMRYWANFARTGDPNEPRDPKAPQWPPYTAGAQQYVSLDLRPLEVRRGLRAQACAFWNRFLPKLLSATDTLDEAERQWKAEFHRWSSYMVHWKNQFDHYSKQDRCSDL
Glycogen synthase kinase-3 beta, sequence (P49841 whole entry, the tested form may be a part, canonical isoform): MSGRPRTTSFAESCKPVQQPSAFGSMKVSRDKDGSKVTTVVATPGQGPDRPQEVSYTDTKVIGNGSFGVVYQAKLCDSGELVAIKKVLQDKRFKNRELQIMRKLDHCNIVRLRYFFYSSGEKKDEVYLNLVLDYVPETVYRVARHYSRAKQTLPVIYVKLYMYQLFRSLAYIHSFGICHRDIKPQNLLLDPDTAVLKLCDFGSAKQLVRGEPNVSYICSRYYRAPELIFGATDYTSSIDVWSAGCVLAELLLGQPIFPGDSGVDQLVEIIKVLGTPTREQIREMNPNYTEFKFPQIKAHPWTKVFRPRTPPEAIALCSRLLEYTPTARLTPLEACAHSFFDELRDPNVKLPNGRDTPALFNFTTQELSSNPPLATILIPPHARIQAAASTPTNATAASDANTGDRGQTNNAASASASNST
Cholinesterase, sequence (P06276 whole entry): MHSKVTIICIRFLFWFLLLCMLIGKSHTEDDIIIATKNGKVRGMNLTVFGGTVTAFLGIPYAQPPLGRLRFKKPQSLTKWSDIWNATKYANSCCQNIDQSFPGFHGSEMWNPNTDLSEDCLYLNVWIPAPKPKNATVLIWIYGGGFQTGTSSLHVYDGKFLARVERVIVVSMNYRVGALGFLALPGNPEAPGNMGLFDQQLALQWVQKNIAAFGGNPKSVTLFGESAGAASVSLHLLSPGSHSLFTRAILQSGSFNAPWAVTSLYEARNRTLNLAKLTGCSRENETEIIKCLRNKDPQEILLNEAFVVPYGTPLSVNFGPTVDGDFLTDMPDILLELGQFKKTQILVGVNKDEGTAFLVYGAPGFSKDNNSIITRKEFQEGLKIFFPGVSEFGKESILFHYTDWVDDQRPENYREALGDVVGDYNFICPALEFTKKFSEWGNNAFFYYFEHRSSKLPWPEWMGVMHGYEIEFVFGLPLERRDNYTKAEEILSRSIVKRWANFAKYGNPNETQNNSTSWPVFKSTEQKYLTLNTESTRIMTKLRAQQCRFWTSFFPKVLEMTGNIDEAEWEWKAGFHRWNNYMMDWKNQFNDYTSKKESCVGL
Beta-1 adrenergic receptor (Homo sapiens), sequence (P08588 whole entry, looked up): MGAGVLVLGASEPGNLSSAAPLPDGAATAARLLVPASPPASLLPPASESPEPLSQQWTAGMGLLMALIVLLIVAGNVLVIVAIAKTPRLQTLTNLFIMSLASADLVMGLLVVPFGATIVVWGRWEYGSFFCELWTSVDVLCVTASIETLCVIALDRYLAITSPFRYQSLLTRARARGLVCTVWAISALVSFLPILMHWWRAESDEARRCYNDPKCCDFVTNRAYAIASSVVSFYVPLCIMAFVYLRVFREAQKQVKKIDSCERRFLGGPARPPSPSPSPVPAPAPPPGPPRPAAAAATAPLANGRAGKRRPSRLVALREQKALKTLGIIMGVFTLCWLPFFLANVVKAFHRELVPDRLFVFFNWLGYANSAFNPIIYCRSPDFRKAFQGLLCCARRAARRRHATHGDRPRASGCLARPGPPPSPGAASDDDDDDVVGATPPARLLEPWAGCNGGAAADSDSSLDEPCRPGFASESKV
Tyrosine-protein kinase JAK3, sequence (P52333 whole entry): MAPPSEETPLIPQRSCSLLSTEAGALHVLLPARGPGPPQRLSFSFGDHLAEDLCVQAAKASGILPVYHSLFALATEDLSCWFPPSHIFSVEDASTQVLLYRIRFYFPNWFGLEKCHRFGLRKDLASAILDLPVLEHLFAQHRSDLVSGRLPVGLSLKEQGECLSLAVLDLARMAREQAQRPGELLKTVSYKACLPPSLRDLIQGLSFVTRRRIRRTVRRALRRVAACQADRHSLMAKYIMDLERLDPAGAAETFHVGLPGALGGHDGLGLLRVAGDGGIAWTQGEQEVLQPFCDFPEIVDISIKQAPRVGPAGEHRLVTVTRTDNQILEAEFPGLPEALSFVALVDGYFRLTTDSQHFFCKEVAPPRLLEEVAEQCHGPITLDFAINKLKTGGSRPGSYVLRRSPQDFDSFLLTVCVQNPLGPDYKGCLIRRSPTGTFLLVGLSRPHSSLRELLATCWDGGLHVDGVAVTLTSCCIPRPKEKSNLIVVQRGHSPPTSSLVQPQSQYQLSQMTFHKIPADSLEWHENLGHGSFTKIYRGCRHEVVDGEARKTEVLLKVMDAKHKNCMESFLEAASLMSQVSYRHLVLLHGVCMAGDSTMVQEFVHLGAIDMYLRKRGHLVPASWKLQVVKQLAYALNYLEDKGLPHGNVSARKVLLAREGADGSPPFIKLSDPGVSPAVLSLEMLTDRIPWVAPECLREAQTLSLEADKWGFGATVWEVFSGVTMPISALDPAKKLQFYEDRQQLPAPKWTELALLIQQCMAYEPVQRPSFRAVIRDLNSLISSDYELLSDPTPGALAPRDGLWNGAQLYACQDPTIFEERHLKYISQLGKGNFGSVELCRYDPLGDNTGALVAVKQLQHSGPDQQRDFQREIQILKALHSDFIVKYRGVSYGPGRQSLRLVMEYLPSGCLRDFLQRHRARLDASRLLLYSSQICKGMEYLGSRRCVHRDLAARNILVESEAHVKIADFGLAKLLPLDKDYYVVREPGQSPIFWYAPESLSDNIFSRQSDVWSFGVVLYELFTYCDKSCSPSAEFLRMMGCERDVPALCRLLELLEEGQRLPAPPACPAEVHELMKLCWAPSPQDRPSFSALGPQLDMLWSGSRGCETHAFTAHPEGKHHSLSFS

## C/C=C(\C)C(=O)O[C@H]1C[C@@H](OC(C)=O)[C@@]2(C(=O)OC)CO[C@H]3[C@@H](O)[C@@](C)([C@]45O[C@@]4(C)[C@H]4C[C@@H]5O[C@@H]5OC=C[C@@]54O)[C@H]4[C@]1(CO[C@]4(O)C(=O)OC)[C@@H]32 [AZADIRACTIN]
Cholinesterase
  EC50: 68.1 µM
Acetylcholinesterase [1]
  EC50: 29.3 µM

## COc1cc(/C=C/C(=O)n2ccc3cc(O)c(O)cc32)ccc1O
Acetylcholinesterase [2]
  IC50: 46.8 µM
[3]
  EC50: 13.9 µM

## CC(=O)O[C@H]1C(=O)[C@@]2(C)[C@H]([C@H](OC(=O)c3ccccc3)[C@]3(O)C[C@H](OC(=O)[C@H](O)[C@@H](NC(=O)c4ccccc4)c4ccccc4)C(C)=C1C3(C)C)[C@]1(OC(C)=O)CO[C@@H]1C[C@@H]2O [PACLITAXEL]
SGC-7901
  IC50: 0.15 µM

## COC(=O)[C@@H]1Cc2cc(O)c(O[C@@H]3O[C@H](CO)[C@@H](O)[C@H](O)[C@H]3O)cc2N1C(=O)/C=C/c1ccc(O)c(OC)c1
[4]
  EC50: 21 µM

## O=C(/C=C/c1ccc(O)cc1)n1ccc2cc(O)c(O)cc21
Acetylcholinesterase [2]
  IC50: 55.1 µM
[3]
  EC50: 16.2 µM

## O=C(/C=C/c1ccc(O)c(O)c1)OC[C@H]1O[C@@H](O[C@H]2[C@H](O)[C@@H](OC(=O)/C=C/c3ccc(O)c(O)c3)[C@H](OC[C@H]3O[C@@H](Oc4cc5c(cc4O)C[C@@H](C(=O)O)N5C(=O)/C=C/c4ccc(O)cc4)[C@H](O)[C@@H](O)[C@@H]3O)O[C@@H]2CO)[C@H](O)[C@@H](O)[C@@H]1O
RAW264.7 [5]
  Activity: 74.2%
RAW264.7 [6]
  Activity: 38.8%

## O=C1O[C@H]([C@@H](O)CO)C(O)=C1O [ASCORBIC ACID]
[7]
  EC50: 9.72 µg/mL (≈ 55.2 µM)
[8]
  EC50: 4.89 µg/mL (≈ 27.8 µM)

## O=C(O)[C@@H]1Cc2cc(O)c(O[C@@H]3O[C@H](CO[C@@H]4O[C@H](CO)[C@@H](O)[C@H](O)[C@H]4O)[C@@H](O)[C@H](O)[C@H]3O)cc2N1C(=O)/C=C/c1ccc(O[C@@H]2O[C@H](CO)[C@@H](O)[C@H](O)[C@H]2O)cc1
RAW264.7 [9]
  IC50: 53.1 µM

## COc1cc(/C=C/C(=O)N2c3cc(O[C@@H]4O[C@H](CO[C@@H]5O[C@H](CO)[C@@H](O)[C@H](O)[C@H]5OC(=O)/C=C/c5cc(OC)c(O)c(OC)c5)[C@@H](O)[C@H](O)[C@H]4O)c(O)cc3C[C@H]2C(=O)O)ccc1O
RAW264.7 [5]
  Activity: 82.4%
RAW264.7 [6]
  Activity: 38.9%

## O=Cc1ccc2n1CCc1cc(O)c(O)cc1C2
Acetylcholinesterase [10]
  IC50: 58.4 µM

## COc1cc(O)c2c(c1)C(=O)c1cc(O)c(O)cc1CCN2
Acetylcholinesterase [10]
  IC50: 46 µM

## Cc1cnc(-c2ccc(O)c(O)c2)c(C)n1
[11]
  IC50: 12.6 µM

## COc1cc(/C=C/C(=O)OC[C@H]2O[C@@H](O[C@H]3[C@H](O)[C@@H](OC(=O)/C=C/c4ccc(O)c(O)c4)[C@H](OC[C@H]4O[C@@H](Oc5cc6c(cc5O)C[C@@H](C(=O)O)N6C(=O)/C=C/c5ccc(O)cc5)[C@H](O)[C@@H](O)[C@@H]4O)O[C@@H]3CO)[C@H](O)[C@@H](O)[C@@H]2O)ccc1O
RAW264.7 [5]
  Activity: 81%
RAW264.7 [6]
  Activity: 34.7%

## NC[C@H](CCCCNC(=O)c1cccc(O)c1O)NC(=O)c1cccc(O)c1O
[12]
  EC50: 4.6 µM

## COCc1ccc(C=O)n1CCc1ccc(O)c(O)c1
MCF7
  IC50: 11.6 µM

## CC(=O)NCCc1cc(O)c(O)cc1[C@H](NC(C)=O)C(=O)c1ccc(O)c(O)c1
[13]
  Activity: 5%

## NC[C@H](CCCCNC(=O)c1cccc(O)c1O)N1C(=O)c2c(ccc(O)c2O)[C@@H](c2ccc(O)cc2)[C@]1(O)C(=O)O
[12]
  EC50: 38.4 µM

## O=C(/C=C/c1ccc(O)cc1)NCCc1ccc(O)c(O)c1
Cholinesterase
  EC50: 41.3 µM
Helicoverpa armigera
  Activity: 65.1%
Acetylcholinesterase [1]
  EC50: 16.9 µM

## COC(=O)[C@@H]1Cc2cc(O)c(O[C@@H]3O[C@H](CO)[C@@H](O)[C@H](O)[C@H]3O)cc2N1C(=O)/C=C/c1ccc(O)cc1
[4]
  EC50: 37.7 µM

## O=C(/C=C/c1ccc(O)c(O)c1)n1ccc2cc(O)c(O)cc21
Acetylcholinesterase [2]
  IC50: 44.8 µM

## C[C@@H]1C[C@H]2[C@@H]3CCC4=CC(=O)C=C[C@]4(C)[C@@]3(F)[C@@H](O)C[C@]2(C)[C@@]1(O)C(=O)CO [DEXAMETHASONE]
RAW264.7 [14]
  IC50: 2 µM

## COc1cc2c(cc1O)CCn1c-2c(-c2ccc(O)c(O)c2)c2c3cc(O)c(OC)cc3oc(=O)c21
[15]
  IC50: 3 µM
[16]
  IC50: > 10 µM
[17]
  IC50: 1.1 µM

## O=C1CCc2cc(O)c(O)cc2N1
MCF7
  IC50: 20.5 µM

## COc1cc(/C=C/C(=O)O[C@H]2[C@H](OC[C@H]3O[C@@H](Oc4cc5c(cc4O)C[C@@H](C(=O)O)N5C(=O)/C=C/c4ccc(O)c(OC)c4)[C@H](O)[C@@H](O)[C@@H]3O)O[C@H](CO)[C@@H](O[C@@H]3O[C@H](CO)[C@@H](O)[C@H](O)[C@H]3O)[C@@H]2O)ccc1O
RAW264.7 [5]
  Activity: 75.6%
RAW264.7 [6]
  Activity: 45.2%

## O=C1C(c2ccc(O)c(O)c2)=c2c(c3c(n2CCc2ccc(O)c(O)c2)=C(c2ccc(O)c(O)c2)C(=O)c2c-3ccc(O)c2O)-c2cc(O)c(O)cc21
[15]
  IC50: < 0.5 µM
[16]
  IC50: < 1.4 µM
[17]
  IC50: < 2.4 µM

## CO[C@H](CNC(=O)/C=C/c1ccc(O)cc1)c1ccc(O)c(O)c1
Cholinesterase
  EC50: 46.9 µM
Helicoverpa armigera
  Activity: 61.6%
Acetylcholinesterase [1]
  EC50: 23.1 µM

## COc1cc2c(cc1O)[C@@H]1Cc3cc(O)c(O)cc3C[N@@+]1(C)CC2
SGC-7901
  IC50: 85.1 µM

## O=C1c2c(ccc(O)c2O)CCn2cccc21
Acetylcholinesterase [10]
  IC50: 50.5 µM

## N[C@@H](CO)C(=O)O [SERINE]
Acetylcholinesterase [10]
  IC50: 38.3 µM

## O=c1oc2cc(O)c(O)cc2c2c(-c3ccc(O)c(O)c3)cn(CCc3ccc(O)c(O)c3)c12
[15]
  IC50: 0.8 µM
[16]
  IC50: 1.5 µM
[17]
  IC50: 2.6 µM

## O=C1C(c2ccc(O)c(O)c2)=c2c(c3c(n2CCc2ccc(O)c(O)c2)=C(c2ccc(O)c(O)c2)C(=O)c2cc(O)c(O)cc2-3)-c2cc(O)c(O)cc21
[15]
  IC50: < 0.2 µM
[16]
  IC50: < 0.3 µM
[17]
  IC50: < 0.5 µM

## Oc1cc2c(cc1O)CCN=C2
[18]
  Activity: 24.2%

## NC[C@H](CCCCNC(=O)c1cccc(O)c1O)N1C(=O)c2c(ccc(O)c2O)[C@@H](c2ccccc2)[C@]1(O)C(=O)O
[12]
  EC50: 28 µM

## NC[C@H](CCCCNC(=O)c1cccc(O)c1O)N1C(=O)c2c(ccc(O)c2O)[C@@H](c2c[nH]c3ccccc23)[C@]1(O)C(=O)O
[12]
  EC50: 30.1 µM

## CS(=O)(=O)Nc1ccc([N+](=O)[O-])cc1OC1CCCCC1 [NS-398]
RAW264.7 [19]
  Activity: 97.1%

## O=C1C(c2ccc(O)c(O)c2)=C2C(=C(c3ccc(O)c(O)c3)C(=O)N2CCc2ccc(O)c(O)c2)c2cc(O)c(O)cc21
[15]
  IC50: < 0.2 µM
[16]
  IC50: < 0.2 µM
[17]
  IC50: < 1.5 µM

## O=C(/C=C/c1ccc(O)cc1)n1ccc2cc(O)c(O[C@@H]3O[C@H](CO)[C@@H](O)[C@H](O)[C@H]3O)cc21
Acetylcholinesterase [2]
  IC50: 58.8 µM

## O=c1oc2cc(O)c(O)cc2c2c3c4cc(O)c(O)cc4oc(=O)c3n(CCc3ccc(O)c(O)c3)c12
[15]
  IC50: 3.1 µM
[16]
  IC50: 3.9 µM
[17]
  IC50: 10 µM

## OCc1ccc(C2=NCCc3cc(O)c(O)cc32)o1
[18]
  Activity: 13.7%

## CC1=NCCc2cc(O)c(O)cc21
[18]
  Activity: 15.9%

## COc1cc(/C=C/C(=O)O[C@H]2[C@H](OC[C@H]3O[C@@H](Oc4cc5c(cc4O)C[C@@H](C(=O)O)N5C(=O)/C=C/c4ccc(O)c(O[C@@H]5O[C@H](CO)[C@@H](O)[C@H](O)[C@H]5O)c4)[C@H](O)[C@@H](O)[C@@H]3O)O[C@H](CO)[C@@H](O[C@@H]3O[C@H](COC(=O)/C=C/c4cc(OC)c(O)c(OC)c4)[C@@H](O)[C@H](O)[C@H]3O)[C@@H]2O)ccc1O
RAW264.7 [5]
  Activity: 63.2%
RAW264.7 [6]
  Activity: 22.4%

From ChEMBL document CHEMBL5390243, “Catecholamine Derivatives: Natural Occurrence, Structural Diversity, and Biological Activity” (J Nat Prod, 2023)
